In US5614562A, “Method of treating drug resistant tumor cells using organoselenones” (The University of Sourthern California, priority 1992, dated 1997):
Converted amounts (≈) assume the structure as drawn. Like-named read-outs stand apart in the source and are kept apart here.

Assays:
[1] = tested on: HCT/VP35; assay: In vitro cytotoxicity, VP16 resistant HCT/VP35 human colon carcinoma; type: cell-based; details: for ratio of IC50 values HCT/VP35 vs HCT116: IC50 divided by IC50 for HCT116
From the text: | HCT/VP35 human colon, VP16 resistant

[2] = tested on: HCT116; assay: In vitro cytotoxicity, HCT116 human colon carcinoma; type: cell-based; details: data provided by Bristol-Myers Laboratories
From the text: ^b Cell lines: HCT116 human colon (sensitive to VP16 and VM26)

[3] = tested on: HCT/VM46; assay: In vitro cytotoxicity, VM26 resistant HCT/VM46 human colon carcinoma; type: cell-based; details: for ratio of IC50 values HCT/VM46 vs HCT116: IC50 divided by IC50 for HCT116
From the text: | HCT/VM46 human colon, VM26 resistant

[4] = tested on: L1210/L-PAM; assay: Cytotoxicity, 48-hr exposure of L-PAM resistant L1210/L-PAM leukemia cells; type: cell-based, murine; details: for IC50: read-out: IC50 L1210/L-PAM; for fold increase in IC50, L1210/L-PAM compared to L1210/0: 48-h exposure
From the text: (§1) Murine L1210 leukemia cells sensitive (L1210/0) and resistant (L1210/L-PAM)to L-phenylalanine mustard were obtained that are adaptable to either in vitro or in vivo passage.
(§2) Broad resistance of the L1210/L-PAM cell line is shown by the approximately 4-fold and 9-fold increases in IC50, compared to L1210/0, for L-PAM and mechlorethamine, respectively (Comparative Examples 3 and 4). […].

[5] = tested on: L1210/0; assay: Cytotoxicity, 48-hr exposure of L1210/0 leukemia cells; type: cell-based, murine; details: read-out: IC50 L1210/0
From the text: as §1, §2

[6] = type: physicochemical
[7] = tested on: HT29 human colon carcinoma cells; assay: Growth inhibition cytotoxicity against HT29 human colon carcinoma cells (MER(+)); type: cell-based; details: HT-29
From the text: (Example 15) These cells are very high in the alkyltransferase enzyme for repair of DNA guanine O6-alkyl products, and therefore are considered strongly MER(+) in phenotype. Levels of this enzyme in HT29 cells have averaged about 0.5 pmol/mg protein in recent studies (K. Chan, et al., unpublished). […] Thus, the lack of cross-resistance to ethyleneimines by the present invention of 2-chloroethyl aryl selenones is not associated with resistence mediated by the alkyltransferase repair enzyme.

[8] = Swain-Scott product competition of nitrogen and oxygen nucleophiles vs NBP (second-order rate constant ratios); type: physicochemical; details: N3^- vs NBP, 37° C., 10 h, 52% aqueous acetone, mean ± S.D.
From the text: (§3) The properties of nucleophilicity and electivity can be quantitatively expressed as n and s constants in the Swain-Scott linear free energy relationship. It has been shown that s and n constants of biological alkylating agents and nucleophiles, respectively, can be readily determined with high precision, using 4-(4-nitrobenzyl)pyridine (NBP) as a competitive substrate for alkyl product formation (Spears, C. P. Mol. Pharmacl.19:496-504,1981; Barbin,A.,Bereziat, A., O'Neill, I. K., and Bartsch, H. Chem.-Biol. Interact,73:261-277, 1990; Kang, S. I., and Spears,C. P. J. Med. Chem. 33:1544-1547, 1990). Broad-spectrum antitumor alkylating agents show uniformly high s constants Spears, C. P. Mol.Pharmacol. 19:496-504, 1981; in contrast, mutagenically efficient alkylating agents show low values (Peterson,A. R., Landolph, J. R., Peterson, H., Spears, C. P., and Heidelberger, C. Cancer Res. 41:3095-3099, 1981; Barbin, A., and Bartsch, H. Mut. Res.215:95-106, 1989).
(§4) FIG. 1 is a Swain-Scott plot of the ratio of second-order rate constants, log (ky /knbp) for several model sulfur, nitrogen, and oxygen nucleophiles in their reactions with 2-chloroethyl 4-methoxy-phenyl selenone ("CEMOS"), vs. their published nucleophilicity nCH3 Br constants. Values of n were taken to be 2.72 for acetate (AcO--), 3.3 for ascorbate, 3.6 for pyridine, 4.0 for azide (N3), 3.94 for nitrite, 5.1 for thiol (SH), 6.18 for sulfite (SO3^2-), 6.36 for thiosulfate (S2 O3^2-), and 6.6 for thiophosphate (HPSO3^2-) (derived from the Ogston "Competition Factor") (Ogston, A. G., Holiday, E. R., Philpot, J. S. L., and Stocken, L. A. Trans.Faraday Soc. 44:45-52, 1948).
The slope of the linear regression equation through the 5 nitrogen and oxygen nucleophiles gives a Swain-Scott selectivity constant, s, equal to 1.79, by Eq. A, shown in FIG. 1:
(§5) ^a By competition between S2 O3^2- and NBP log(kS
(§6) /knbp) or N3^- and NBP log(kN /knbp ) at
(§7) 37° C. and 10 h, in 52% aqueous acetone, using initial
(§8) concentrations of 0.0435 mM and 0.0217 mM of 2chloroethyl phenyl selenone
(§9) and nornitrogen mustard, respectively, as described. Values, experimental

[9] = tested on: 7 different human colon carcinoma cell lines; details: read-out: average IC50, NCI in vitro screen; cited from earlier work
[10] = tested on: P388 murine leukemia ascites cells; assay: In vivo growth inhibition of P388 leukemia ascites in mice; parameters: species or system murine; BDF1 mice
Method: In FIG. 2 and Table II are shown the results of in vivo antitumor testing of 2-chloroethyl aryl selenones against murine P388 Leukemia ascites cells.
Examples 5-8 consisted of the use of 2-chloroethyl 4-methoxy-phenyl selenone to treat the mice. Examples 9-12 were the same as example 5 except 2-chloroethyl phenyl selenone was employed.
(§10) The maximally tolerated duration of the highest dose shown in FIG. 2 and Table II, 6 mg/kg/day i.p. of 2-chloroethyl phenyl selenone, was 10 days in a separate experiment. In the experiments shown, i.p. drug was administered for 5 consecutive days, Days 1-5, beginning the day after tumor inoculation (on Day 0).
Mice were inoculated i.p. with 1×10^6 cells of P388 murine leukemia ascites passaged in BDF1 mice, in a volume of 0.1 ml. The selenones were formulated in normal (0.9%, w/v) NaCl for an injection volume of 0.3 ml. Control mice (12 in each group) received i.p. saline alone comparative examples 1 and 2. For each dose level and drug, 6 mice per group were used.
The plateauing of weight increase, at Days 8-9, is consistent with classical Gompertizian tumor growth kinetics (Laird, A. K. Brit. J. Cancer 18:490-502, 1964). The delays observed in the time period before the onset of the exponential phase of weight increase are given in Table II, defined as the Growth Delay.
^a Calculated from Day at which weight first exceeded baseline (Day 0

[11] = Acute intraperitoneal toxicity / maximally tolerated dose in mice; type: in vivo; details: 6 mg/kg/day i.p., separate experiment
Method: as §10

[12] = Swain-Scott product competition of sulfur nucleophiles vs NBP (second-order rate constant ratios); type: physicochemical; details: S2O3^2- vs NBP, 37° C., 10 h, 52% aqueous acetone, mean ± S.D.
From the text: as §3, §4
Extrapolation of Eq. A predicts that the log (ky /knbp) values for the thiol nucleophiles should have ranged from 3 to 5. However, the measured ratios of second-order rate constants were approximately 100-fold lower than this expectation. Also, the linear regression relationship, Eq. B (FIG. 1), for correlation of log (ky /knbp) values vs. nCH3 Br constants gave a sulfur nucleophile selectivity constant, s, equal to 0.84, approximately one-half of the value for reaction with nitrogen and oxygen nucleophiles:
as §5, §6, §7, §8, §9

[13] = tested on: L1210/0; details: cited from earlier work
[14] = compared with chlorambucil; cited from earlier work
[15] = tested on: L1210/L-PAM; details: L1210/L-PAM line; cited from earlier work
[16] = VP16 resistant, data provided by Bristol-Myers Laboratories
[17] = VM26 resistant, data provided by Bristol-Myers Laboratories
[18] = Mus musculus, L1210/LPAM, 48-hr exposure
[19] = Mus musculus, L1210/0, 48-hr exposure

2,6Bis(3-methanesulfonylpropylseleno)lutidine [Lutidine Derivative]
IC50 HCT/VP35 [1, 16]: > 15.6 µg/mL | IC50 HCT116 [2]: > 15.6 µg/mL | IC50 HCT/VM46 [3, 17]: > 15.6 µg/mL | Ratio of IC50s (L1210/L-PAM vs L1210/0) ([4]; 48-hr exposure): 2.3 | IC50 ([4]; 48-hr exposure): 28 µM | IC50 ([5]; 48-hr exposure): 12 µM

3-methanesulfonylpropyl phenyl selenone
ratio of IC50 values HCT/VP35 vs HCT116 [1]: 0.8 | IC50 HCT/VP35 [1, 16]: 5.15 µg/mL | IC50 HCT116 [2]: 6.34 µg/mL | ratio of IC50 values HCT/VM46 vs HCT116 [3]: 0.8 | IC50 HCT/VM46 [3, 17]: 4.93 µg/mL

O=[Se](=O)(CCCl)c1ccccc1 [2-chloroethyl phenyl selenone]
AA (alkylating activity, absorption at 560 nm) ([6]; alkalinized alkyl-NBP, mean ± S.D.): 0.75 ± 0.004 | alkylating activity relative to mechlorethamine HCl ([6]; mechlorethamine HCl = 100%): 140% | alkylating activity, percent of nor-nitrogen mustard ([6]; relative to nor-nitrogen mustard): 170% | IC50 ([1]; Homo sapiens, HCT/VP35, VP16 resistant, data provided by Bristol-Myers Laboratories): 0.82 µg/mL (≈ 3.26 µM) | ratio of IC50 values HCT/VP35 vs HCT116 [1]: 0.8 | IC50 [7]: 2.8 µM | IC50 ([2]; Homo sapiens, HCT-116): 1.02 µg/mL (≈ 4.05 µM) | IC50 ([3]; Homo sapiens, VM26 resistant, data provided by Bristol-Myers Laboratories): 0.44 µg/mL (≈ 1.75 µM) | ratio of IC50 values HCT/VM46 vs HCT116 [3]: 0.4 | log(kN/knbp) [8]: 1.95 ± 0.11 | log(kN/knbp) ([8]; listed as SKI-273): 1.95±0.11 | IC50 [9]: 2.3 ± 1.6 µM | Growth delay ([10]; 1.0 mg/kg daily i.p., Days 1-5 (total 5 mg/kg), Ex. 6, Ex. 9): 4 days | inhibition of tumor growth by the lowest dose tested ([10]; 1 mg/kg/d i.p.): inhibition of tumor growth | Growth delay ([10]; 2.0 mg/kg daily i.p., Days 1-5 (total 10 mg/kg), Ex. 7, Ex. 10): 7 days | Growth delay ([10]; 4.0 mg/kg daily i.p., Days 1-5 (total 20 mg/kg), Ex. 8, Ex. 11): 8 days | Growth delay ([10]; 6 mg/kg daily i.p., Days 1-5 (total 30 mg/kg), Ex. 12): 11 days | Ratio of IC50s (L1210/L-PAM vs L1210/0) ([4]; 48-hr exposure): 0.9 | IC50 [4, 18]: 0.51 µM | maximally tolerated duration [11]: 10 days | IC50 [5, 19]: 0.55 µM | log(kS/knbp) [12]: 1.77 ± 0.05 | log(kS/knbp) ([12]; listed as SKI-273): 1.77±0.05

CS(=O)(=O)OCCC[Se]CCCOS(C)(=O)=O [(MsOCH2 CH2 CH2)2 Se]
fold increase in IC50, L1210/L-PAM compared to L1210/0 [4]: 7 fold | Ratio of IC50s (L1210/L-PAM vs L1210/0) ([4]; 48-hr exposure): 7.0 | IC50 [4, 18]: 16 µM | IC50 [5, 19]: 2.3 µM

O=NN(CCCl)C(=O)NCCCl [BCNU, carmustine]
sensitivity of parent L1210/0 line [13]: sensitive

CS(=O)(=O)OCCCCOS(C)(=O)=O [Busulfan]
Ratio of IC50s (L1210/L-PAM vs L1210/0) ([4]; 48-hr exposure): 1.1 | IC50 [4, 18]: 60 µM | IC50 [5, 19]: 55 µM

CS(=O)(=O)CS(=O)(=O)OCCCl [Clomesone]
nucleophilic selectivity [14]: relatively high nucleophilic selectivity approaching that of chlorambucil

N[C@@H](Cc1ccc(N(CCCl)CCCl)cc1)C(=O)O [L-Phenylalanine Mustard (L-PAM), L-Phenylalanine Mustard]
in vivo resistance (log cell kill differential) [15]: 4 log | sensitivity of parent L1210/0 line [13]: sensitive | fold increase in IC50, L1210/L-PAM compared to L1210/0 [4]: approximately 4 fold | Ratio of IC50s (L1210/L-PAM vs L1210/0) ([4]; 48-hr exposure): 4.4 | IC50 ([4]; Mus musculus, L1210/LPAM, 48 h): 7 µM | IC50 ([5]; Mus musculus, L1210/0, 48 h): 1.6 µM
